From paper PMC5384750 (PLoS ONE, 2017)

Key:
[1] = tested on: IDE (S10 extract or rIDE); type: in vitro ADME; settings: 20 ng sp6 or 30 ng vp6 with 5 μg S10 extract or 2 ng rIDE, up to 60 min; Western blot densitometry; at least 3 independent experiments per setting; value depends on the experimental setting
Method: Fig 9 Multiplication of PTAPPA-motifs stabilizes p6. 20 ng of sp6 or 30 ng of vp6 were incubated either with 5 μg S10 extract (A/B/C) or 2 ng of rIDE (D) for up to 60 min. Degradation efficiency was quantified via densitometric analyses of Western blots. Values represent the arithmetic mean ± SD of at least 3 independent experiments for each setting.
Typically 5 μg S10 were incubated with inhibitor or buffer and 20–100 ng sp6 at 37°C for 30 min. Reactions were stopped by addition of sample buffer and incubation at 95°C for 5 min. Remaining p6 was detected by Western blotting using an anti-p6 rabbit antiserum. Alternatively, 10 ng of BODIPY FL-labeled sp6 (sp6BY) were used as substrate and detected directly in the polyacrylamide gel by fluorescence scanning. In some experiments the amount of p6 was densitometrically quantified with the software AIDA (Raytest). For the in vitro degradation of amyloid-β 10 ng of Aβ-FITC (abcam) were used analogously to sp6BY. For the in vitro degradation of viral p6, VLPs were pelleted and lysed in IDE enzyme buffer (150 mM NaCl, 50 mM Tris pH 7.4, 0.5% (v/v) Triton X-100). The p6 content was estimated by Western blotting using a dilution series of sp6 with known concentrations. Equivalents of 15 ng were used for digestion experiments and subsequently detected by Western blotting. […]

[2] = molecular target: T1, insulin-degrading enzyme (IDE) (Homo sapiens, UniProt P14735); assay: Inhibition of Aβ-FITC degradation in S10 extract; type: biochemical; settings: 10 ng FITC-labeled Aβ 1–40, 5 μg S10, 45 min, 37°C; fluorescence; four independent experiments
T1 construct: endogenous in cells; host or cells: HeLa cells (cytosolic S10 extract)
T1 sequence (P14735 whole entry): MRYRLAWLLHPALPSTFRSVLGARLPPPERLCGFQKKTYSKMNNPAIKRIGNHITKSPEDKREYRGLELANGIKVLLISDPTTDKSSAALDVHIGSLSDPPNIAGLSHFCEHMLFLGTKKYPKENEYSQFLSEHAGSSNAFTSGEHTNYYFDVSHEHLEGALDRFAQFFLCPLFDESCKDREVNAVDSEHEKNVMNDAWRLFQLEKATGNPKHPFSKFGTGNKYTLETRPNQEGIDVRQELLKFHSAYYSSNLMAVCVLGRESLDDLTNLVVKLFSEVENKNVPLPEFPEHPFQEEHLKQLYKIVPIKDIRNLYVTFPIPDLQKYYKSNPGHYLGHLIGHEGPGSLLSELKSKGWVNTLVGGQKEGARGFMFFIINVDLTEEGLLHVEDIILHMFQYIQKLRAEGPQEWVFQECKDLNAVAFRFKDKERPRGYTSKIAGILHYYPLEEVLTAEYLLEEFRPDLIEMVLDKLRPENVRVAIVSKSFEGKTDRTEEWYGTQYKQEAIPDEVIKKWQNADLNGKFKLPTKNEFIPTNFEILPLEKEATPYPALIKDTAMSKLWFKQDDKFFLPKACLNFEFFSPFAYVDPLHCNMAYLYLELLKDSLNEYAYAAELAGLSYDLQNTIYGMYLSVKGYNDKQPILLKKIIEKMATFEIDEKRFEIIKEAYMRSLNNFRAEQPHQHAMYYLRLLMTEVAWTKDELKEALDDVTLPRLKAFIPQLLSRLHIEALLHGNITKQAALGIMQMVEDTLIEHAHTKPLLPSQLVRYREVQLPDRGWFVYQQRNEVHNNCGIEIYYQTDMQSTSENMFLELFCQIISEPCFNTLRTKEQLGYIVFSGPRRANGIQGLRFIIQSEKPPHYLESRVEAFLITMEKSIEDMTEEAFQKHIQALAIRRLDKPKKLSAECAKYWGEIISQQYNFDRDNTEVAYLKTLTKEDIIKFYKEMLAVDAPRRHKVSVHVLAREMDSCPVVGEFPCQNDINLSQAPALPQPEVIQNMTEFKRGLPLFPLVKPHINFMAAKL
Method: […] Reactions were stopped by addition of sample buffer and incubation at 95°C for 5 min. Remaining p6 was detected by Western blotting using an anti-p6 rabbit antiserum. Alternatively, 10 ng of BODIPY FL-labeled sp6 (sp6BY) were used as substrate and detected directly in the polyacrylamide gel by fluorescence scanning. In some experiments the amount of p6 was densitometrically quantified with the software AIDA (Raytest). For the in vitro degradation of amyloid-β 10 ng of Aβ-FITC (abcam) were used analogously to sp6BY. For the in vitro degradation of viral p6, VLPs were pelleted and lysed in IDE enzyme buffer (150 mM NaCl, 50 mM Tris pH 7.4, 0.5% (v/v) Triton X-100). The p6 content was estimated by Western blotting using a dilution series of sp6 with known concentrations. Equivalents of 15 ng were used for digestion experiments and subsequently detected by Western blotting. Experiments carried out with recombinant IDE (Calbiochem) were performed in IDE enzyme buffer. Recombinant FITC-labeled insulin was purchased from Sigma.
Supplementary file pone.0174254.s003.tif: S3 Fig p6 competes with the in vitro degradation of Aβ. […] Aβ-FITC was detected by measurement of fluorescence excitation. The band marked with * represents Aβ-oligomers and has been described earlier. (B) Band intensities were quantified for four independent experiments and values represent the arithmetic mean ± SD. […]

[3] = In vitro degradation in cytosolic S10 HeLa cell extract; type: in vitro ADME; settings: human, cytosolic S10 HeLa cell extract; 100 ng sp6, 5 μg S10 extract from HeLa cells, 37°C; Western blot (anti-p6), quantified; estimated from exponential decay; mean of 4 independent experiments
Method: (§1) For generation of S10, confluent dishes with HeLa cells were extensively washed and subsequently lysed with a modified S10 buffer (250 mM sucrose, 80 mM KCl, 10 mM Tris pH 7.6, 0.1% (v/v) Triton X-100 [91]). Debris and nuclei were removed by centrifugation at 10.000 × g for 10 min. Protein content was determined by BCA-Assay (Pierce) and aliquots stored at -80°C.
Typically 5 μg S10 were incubated with inhibitor or buffer and 20–100 ng sp6 at 37°C for 30 min. Reactions were stopped by addition of sample buffer and incubation at 95°C for 5 min. Remaining p6 was detected by Western blotting using an anti-p6 rabbit antiserum. Alternatively, 10 ng of BODIPY FL-labeled sp6 (sp6BY) were used as substrate and detected directly in the polyacrylamide gel by fluorescence scanning. In some experiments the amount of p6 was densitometrically quantified with the software AIDA (Raytest). For the in vitro degradation of amyloid-β 10 ng of Aβ-FITC (abcam) were used analogously to sp6BY. For the in vitro degradation of viral p6, VLPs were pelleted and lysed in IDE enzyme buffer (150 mM NaCl, 50 mM Tris pH 7.4, 0.5% (v/v) Triton X-100). The p6 content was estimated by Western blotting using a dilution series of sp6 with known concentrations. Equivalents of 15 ng were used for digestion experiments and subsequently detected by Western blotting. Experiments carried out with recombinant IDE (Calbiochem) were performed in IDE enzyme buffer. Recombinant FITC-labeled insulin was purchased from Sigma.

recombinant IDE (rIDE) = molecular target: T2, recombinant IDE (rIDE) (Rattus norvegicus, UniProt P35559); assay: In vitro degradation by recombinant IDE (extent, kinetics, cleavage sites); type: biochemical; settings: 30 min, 37°C
T2 construct: purchased Calbiochem
T2 sequence (P35559 whole entry): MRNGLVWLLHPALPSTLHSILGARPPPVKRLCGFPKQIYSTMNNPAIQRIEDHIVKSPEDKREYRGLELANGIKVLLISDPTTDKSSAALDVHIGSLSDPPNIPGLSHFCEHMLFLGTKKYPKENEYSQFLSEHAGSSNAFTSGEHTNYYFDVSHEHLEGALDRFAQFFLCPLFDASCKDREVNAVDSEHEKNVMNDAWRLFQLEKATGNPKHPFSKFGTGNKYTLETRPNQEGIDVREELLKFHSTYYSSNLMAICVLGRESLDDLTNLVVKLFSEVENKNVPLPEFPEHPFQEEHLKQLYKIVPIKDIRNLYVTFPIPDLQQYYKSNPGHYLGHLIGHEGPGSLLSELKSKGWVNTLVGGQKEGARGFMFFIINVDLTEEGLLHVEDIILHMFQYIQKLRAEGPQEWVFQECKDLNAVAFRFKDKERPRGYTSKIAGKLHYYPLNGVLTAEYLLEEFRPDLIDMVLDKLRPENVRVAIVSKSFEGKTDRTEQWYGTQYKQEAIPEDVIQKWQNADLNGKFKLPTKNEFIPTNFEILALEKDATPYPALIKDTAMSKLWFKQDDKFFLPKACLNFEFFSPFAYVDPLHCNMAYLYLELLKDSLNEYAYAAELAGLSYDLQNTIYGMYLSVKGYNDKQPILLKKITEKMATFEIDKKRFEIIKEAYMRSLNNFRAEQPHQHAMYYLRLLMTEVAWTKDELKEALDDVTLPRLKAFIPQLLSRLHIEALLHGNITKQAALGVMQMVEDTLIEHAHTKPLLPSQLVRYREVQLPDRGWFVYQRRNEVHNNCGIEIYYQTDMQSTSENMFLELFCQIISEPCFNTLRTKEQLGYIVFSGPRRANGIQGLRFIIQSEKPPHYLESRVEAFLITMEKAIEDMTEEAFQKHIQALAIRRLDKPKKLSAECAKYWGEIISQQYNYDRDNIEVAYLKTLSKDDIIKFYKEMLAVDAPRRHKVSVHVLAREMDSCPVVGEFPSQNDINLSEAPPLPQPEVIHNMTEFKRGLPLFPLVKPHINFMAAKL
Method: (A) 10 ng of sp6BY or insulin-FITC were incubated with indicated amounts of rIDE for 30 min at 37°C. Remaining amounts of sp6BY and insulin-FITC were detected by measurement of fluorescence excitation. (B) Results of four independently performed experiments. Values represent the arithmetic mean ± SD. (C) Increasing concentrations of sp6BY were incubated with rIDE for 10 min at 37°C. The velocities were calculated from the degradation of sp6BY and normalized for the amount of rIDE. Data points represent values from three independent experiments in a double-reciprocal Lineweaver-Burk plot.
Fig 8 Generation of stable p6 mutants. […] Reactions were stopped by adjusting the samples to 0.3% (w/v) […] and subsequently analyzed by mass spectrometry. Arrows above the primary sequence represent the detected cleavage sites, and initial and secondary cleavage sites are indicated as big or small arrows, respectively. […] (C) 10 ng of sp6BY were incubated with 250 μg/ml sp6 wt, 2xPTAPPA, 3xPTAPPA or only buffer and 5 μg S10 for 30 min at 37°C. sp6BY was detected by fluorescence emission and quantified. […]
Typically 5 μg S10 were incubated with inhibitor or buffer and 20–100 ng sp6 at 37°C for 30 min. […] Remaining p6 was detected by Western blotting using an anti-p6 rabbit antiserum. […] In some experiments the amount of p6 was densitometrically quantified with the software AIDA (Raytest). […]

[4] = molecular target: T1, insulin-degrading enzyme (IDE); assay: Inhibition of / competition with sp6 or sp6BY degradation in S10 extract; type: biochemical; settings: 10 ng sp6BY, 5 μg S10 extract, 30 min, 37°C; fluorescence; mean of at least three independent experiments
Method: as §1
Reactions were stopped by addition of sample buffer and incubation at 95°C for 5 min. Remaining p6 was detected by Western blotting using an anti-p6 rabbit antiserum. Alternatively, 10 ng of BODIPY FL-labeled sp6 (sp6BY) were used as substrate and detected directly in the polyacrylamide gel by fluorescence scanning. In some experiments the amount of p6 was densitometrically quantified with the software AIDA (Raytest). For the in vitro degradation of amyloid-β 10 ng of Aβ-FITC (abcam) were used analogously to sp6BY. For the in vitro degradation of viral p6, VLPs were pelleted and lysed in IDE enzyme buffer (150 mM NaCl, 50 mM Tris pH 7.4, 0.5% (v/v) Triton X-100). The p6 content was estimated by Western blotting using a dilution series of sp6 with known concentrations. Equivalents of 15 ng were used for digestion experiments and subsequently detected by Western blotting. Experiments carried out with recombinant IDE (Calbiochem) were performed in IDE enzyme buffer.
Bestatin, Chymostatin, E-64, Leupeptin, Pepstatin, Phosphoramidon, Pefabloc SC, EDTA, Aprotinin, Antipain were purchased from Roche as part of a protease inhibitors set and used at the following concentrations: 74 μM Antipain; 130 μM Bestatin; 100 μM Chymostatin; 28 μM E-64; 1 μM Leupeptin; 1 μM Pepstatin; 600 nM Phosphoramidon; 4 mM Pefabloc SC; 1.3 mM EDTA; […]. […] (Phoenix Pharmaceuticals and Tocris), TPEN (Calbiochem), and NEM (Roche) were purchased from companies indicated.

Q: For `CC[C@H](C)[C@H](NC(=O)[C@@H]1CCCN1C(=O)[C@H](CCC(=O)O)NC(=O)[C@H](CCC(N)=O)NC(=O)[C@H](CCCCN)NC(=O)[C@H](CCC(N)=O)NC(=O)[C@H](CO)NC(=O)[C@@H]1CCCN1C(=O)[C@@H](NC(=O)[C@@H](NC(=O)[C@@H](NC(=O)[C@H](CCC(=O)O)NC(=O)[C@H](CCC(=O)O)NC(=O)CNC(=O)[C@H](Cc1ccccc1)NC(=O)[C@H](CCCNC(=N)N)NC(=O)[C@H](Cc1ccccc1)NC(=O)[C@H](CO)NC(=O)[C@H](CCC(=O)O)NC(=O)[C@H](C)NC(=O)[C@@H]1CCCN1C(=O)[C@@H]1CCCN1C(=O)[C@H](C)NC(=O)[C@@H](NC(=O)[C@@H]1CCCN1C(=O)[C@H](C)NC(=O)[C@@H]1CCCN1C(=O)[C@@H]1CCCN1C(=O)[C@H](C)NC(=O)[C@@H](NC(=O)[C@@H]1CCCN1C(=O)[C@H](CCC(=O)O)NC(=O)[C@@H]1CCCN1C(=O)[C@H](CCCNC(=N)N)NC(=O)[C@H](CO)NC(=O)[C@H](CCC(N)=O)NC(=O)[C@@H](N)CC(C)C)[C@@H](C)O)[C@@H](C)O)[C@@H](C)O)[C@@H](C)O)[C@@H](C)O)C(=O)N[C@@H](CC(=O)O)C(=O)N[C@@H](CCCCN)C(=O)N[C@@H](CCC(=O)O)C(=O)N[C@@H](CC(C)C)C(=O)N[C@@H](Cc1ccc(O)cc1)C(=O)N1CCC[C@H]1C(=O)N[C@@H](CC(C)C)C(=O)N[C@@H](C)C(=O)N[C@@H](CO)C(=O)N[C@@H](CC(C)C)C(=O)N[C@@H](CCCNC(=N)N)C(=O)N[C@@H](CO)C(=O)N[C@@H](CC(C)C)C(=O)N[C@@H](Cc1ccccc1)C(=O)NCC(=O)N[C@@H](CO)C(=O)N[C@@H](CC(=O)O)C(=O)N1CCC[C@H]1C(=O)N[C@@H](CO)C(=O)N[C@@H](CO)C(=O)N[C@@H](CCC(N)=O)C(=O)O` [2x], which “half-life in in vitro degradation assays” value [1] is on record?
A: Its value is “up to 30 min”.

Q: Which IC50 [2] does the source give for `CC[C@H](C)[C@H](NC(=O)[C@@H]1CCCN1C(=O)[C@H](CCC(=O)O)NC(=O)[C@H](CCC(N)=O)NC(=O)[C@H](CCCCN)NC(=O)[C@H](CCC(N)=O)NC(=O)[C@H](CO)NC(=O)[C@@H]1CCCN1C(=O)[C@@H](NC(=O)[C@@H](NC(=O)[C@@H](NC(=O)[C@H](CCC(=O)O)NC(=O)[C@H](CCC(=O)O)NC(=O)CNC(=O)[C@H](Cc1ccccc1)NC(=O)[C@H](CCCNC(=N)N)NC(=O)[C@H](Cc1ccccc1)NC(=O)[C@H](CO)NC(=O)[C@H](CCC(=O)O)NC(=O)[C@H](CCC(=O)O)NC(=O)[C@@H]1CCCN1C(=O)[C@@H]1CCCN1C(=O)[C@H](C)NC(=O)[C@@H](NC(=O)[C@@H]1CCCN1C(=O)[C@H](CCC(=O)O)NC(=O)[C@@H]1CCCN1C(=O)[C@H](CCCNC(=N)N)NC(=O)[C@H](CO)NC(=O)[C@H](CCC(N)=O)NC(=O)[C@@H](N)CC(C)C)[C@@H](C)O)[C@@H](C)O)[C@@H](C)O)[C@@H](C)O)C(=O)N[C@@H](CC(=O)O)C(=O)N[C@@H](CCCCN)C(=O)N[C@@H](CCC(=O)O)C(=O)N[C@@H](CC(C)C)C(=O)N[C@@H](Cc1ccc(O)cc1)C(=O)N1CCC[C@H]1C(=O)N[C@@H](CC(C)C)C(=O)N[C@@H](C)C(=O)N[C@@H](CO)C(=O)N[C@@H](CC(C)C)C(=O)N[C@@H](CCCNC(=N)N)C(=O)N[C@@H](CO)C(=O)N[C@@H](CC(C)C)C(=O)N[C@@H](Cc1ccccc1)C(=O)NCC(=O)N[C@@H](CO)C(=O)N[C@@H](CC(=O)O)C(=O)N1CCC[C@H]1C(=O)N[C@@H](CO)C(=O)N[C@@H](CO)C(=O)N[C@@H](CCC(N)=O)C(=O)O` [sp6] here?
A: Its IC50 is 13.8 µM.

Q: What about the half-life [3] of the same molecule?
A: Its half-life is about 10 min.

Q: And the “degradation by recombinant IDE” value (recombinant IDE (rIDE); 10 ng rIDE, IDE enzyme buffer, 10 ng sp6BY (fluorescence) or VLP/virion lysate (Western blot))?
A: Its value is “degraded by recombinant IDE”.

Q: And the IC50 [4]?
A: The IC50 was about 30.1 µM.

Q: For “insulin-FITC: recombinant FITC-labeled insulin (Sigma)”, which “amount of rIDE required to cleave with the same efficiency, relative to sp6” value (recombinant IDE (rIDE); 10 ng insulin-FITC, fluorescence, four independent experiments) is on record?
A: The value was 100 fold.
